# Earlier results in US20050014837A1, “Method for treating ocular hypertension and glaucoma” (priority 2001, published 2005).
# Conditions: 0.01% solution; 5, 10 and 20 μL
smiles,measurement,value
O=C1OC2(c3ccc(O)cc3Oc3cc(O)ccc32)c2ccccc21 [fluorescein],initial concentration in meniscus relative to the concentration of the administered fluorescein,36-45%
